Data on 34 molecules can be found in patent publication US10940139B2, “Compounds that interact with the Ras superfamily for the treatment of cancers, inflammatory diseases, rasopathies, and fibrotic disease” (Shy Therapeutics LLC, priority 2017, dated 2021).

KRas G12D/Q61H double mutant, sequence (P01116-2 other isoform, or with tags, fused parts or gaps G12D/Q61H): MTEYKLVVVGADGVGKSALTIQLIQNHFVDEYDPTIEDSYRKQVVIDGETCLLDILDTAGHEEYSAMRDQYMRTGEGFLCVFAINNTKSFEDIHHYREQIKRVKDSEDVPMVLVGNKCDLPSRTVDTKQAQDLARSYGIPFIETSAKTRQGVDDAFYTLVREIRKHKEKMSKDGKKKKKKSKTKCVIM

The first assay has as its target KRas G12D/Q61H double mutant (Homo sapiens (Human), UniProt P01116, G12D/Q61H). Put plainly: Ras GTP binding domain inhibition assay (labeled GTP). Particulars: 20 μM. As for the experimental part: Buffer-I: • 50 mM Tris, pH 7.5 • 150 mM NaCl (optional) • 1 mM MgCl2 • 1 mM DTT. • KRas G12D mutant protein was expressed as a His-tagged protein. Purified His-KRas G12D protein was diluted in buffer-I to a final concentration of 3-10 μg/ml. • 200 μl of the diluted His-KRas G12D protein was added to a nickel coated 96 well plate and incubated overnight at 4° C. • The next day, wells were washed 3× in 200 μl of Buffer-I. • Then 200 μl of Buffer-I were added to each well in the presence of 1% DMSO. • Tested compounds were added to the protein-coated wells at a concentration of 20 μM, and incubated for 3 hours at room temperature. While performing IC50 measurements a serial dilution of all tested concentrations was prepared.
Then 22 μl of Cy3-GTP or Cy5-GTP was added to each well. The labeled GTP was incubated for 45 min. at room temperature. • Following GTP incubation, wells were washed 3× in Buffer-I, and 200 μl of Buffer-I were added to each well. • Following washes, the amount of bound labeled-GTP was measured with an Eppendorf AF2200 plate reader.
By substituting KRas G12D mutant protein with KRas G12C mutant, KRas wild type, KRas Q61H mutant, KRas G12D/Q61H double mutant or KRas G12C/Q61H double mutant under the assay conditions described above, KRas G12C mutant KRas wild type, KRas Q61H mutant, KRas G12D/Q61H double mutant and KRas G12C/Q61H double mutant inhibition, respectively, were each determined.
As for `O=C(COc1ccc(F)cc1F)Nc1nnc(-c2ccccn2)[nH]1` [drawing 2459], the “KRas G12D Q61H % Inh.” value is on record as “C (C = 51-75% inhibition)”.

Staying with this assay, now noted: 20 μM compound; KRas G12D/Q61H double mutant; read-out: % Inhibition at 20 μM of K-Ras mutant and wild-type protein, KRas G12D Q61H.
On to `CCOc1ccc(S(=O)(=O)N(CC(=O)N2CCCc3ccccc32)Cc2ccco2)cc1`, for which the inhibition at 20 µM was 25 to 50%.
The same measure, in the same setting: next, `FC(F)Oc1ccc(N2CCOC(c3ccc(Br)cc3)C2)nc1` (stereo not shown): 25 to 50%.
The same measure, in the same setting: as for `CC(C)(CNc1ccc(S(=O)(=O)N(Cc2ccccc2)Cc2ccccc2)cn1)N1CCOCC1`, the figure is 25 to 50%.
Still for that read-out and setting: next, `Cc1ccc(OC(C)C(=O)Nc2ccccc2S(=O)(=O)NC(C)(C)C)c(Br)c1` (stereo not shown): 1 to 25%.
Regarding `CCCc1cc(=O)oc2cc(OCc3cc(C(=O)OC)c(C)o3)ccc12`, the inhibition at 20 µM was in the range of 25 to 50%.
Still for that read-out and setting: next, `CCOc1ccc(CN(C)CC(=O)Nc2ccc3c(c2)c2ccccc2n3CC)cc1OC`: 25 to 50%; `O=C(CCOCc1ccccc1)Nc1nnc(-c2ccccn2)[nH]1`: 51 to 75%.

The assay is the same for the next values; noted with them: 20 μM compound; read-out: % Inhibition at 20 μM KRas G12D Q61H.
On to `CCN1CCN(c2nc(-c3ccccn3)nc3sc(-c4ccccc4)cc23)CC1`, for which the inhibition at 20 µM is 25 to 50%.
On the same count and under the same terms, next, `O=C(CCc1ccc(F)cc1)Nc1nnc(-c2ccccn2)[nH]1`: 25 to 50%; `O=C(NCc1ccccn1)c1ccn(-c2cccc(Cl)c2)n1`: 25 to 50%; `CCc1noc(CNc2cc(C(=O)OC)cc(C(F)(F)F)c2)n1`: 25 to 50%.
The same measure, in the same setting: as for `Cc1cccc(C)c1OCCn1c(CN2CCCCC2)nc2ccccc21`, the figure is 25 to 50%; as for `Cc1nc(-c2ccccn2)[nH]c(=O)c1CC(=O)NC1CCCCCCC1`, 51 to 75%.
As to `Cc1cc(C(C)C)ccc1OCC(=O)N1N=CCC1(O)C(F)(F)F` (stereo not shown), the inhibition at 20 µM is 25 to 50%.
On to `CC(c1nc2ccccc2n1CCOc1ccccc1)N1CCCCC1` (stereo not shown), for which the inhibition at 20 µM was 1 to 25%.
Take `OCC1CCCN(c2nc(-c3ccccn3)nc3scc(-c4ccccc4)c23)C1` (stereo not shown): the inhibition at 20 µM was in the range of 25 to 50%.
On the same count and under the same terms, next, `CN(Cc1nnc(-c2ccccc2)o1)Cc1ccccc1N1CCCC1`: 1 to 25%; `Cc1cccc(OC2CCN(c3nc(-c4ccccn4)nc4c3CCC4)CC2)n1`: 1 to 25%.
On the same count and under the same terms, next, `O=C(CCCNc1ncccn1)Nc1nnc(-c2ccccn2)[nH]1`: 25 to 50%; `Cc1ccc(CN(C(=O)c2cc(-c3ccccc3Cl)[nH]n2)C2CC2)o1`: 1 to 25%.
Same read-out and setting: next, `COC(=O)c1csc2c(O)nc(-c3ccccn3)nc12` [drawing 2823]: 1 to 25%; `CC1CN(c2nc(-c3ccccn3)nc3c2CCC3)C(C)CN1C` (stereo not shown): 25 to 50%.
Regarding `CC1CN(Cc2ccccc2)CCN1C(=O)c1csc2c(O)nc(-c3ccccn3)nc12` (stereo not shown), the inhibition at 20 µM was 25 to 50%.

Still in this assay, the particulars now being: 20 μM; read-out: KRas G12D Q61H % Inh.
On to `O=C(Nc1nnc(-c2ccccn2)[nH]1)c1cccc(NC(=O)C2CCCO2)c1` (stereo not shown) [drawing 2498], for which the inhibition at 20 µM was in the range of 51 to 75%.
On the same count and under the same terms, next, `CS(=O)(=O)N1CCCc2cc(C(=O)N3CCCc4c(O)nc(-c5ccccn5)nc43)ccc21` [drawing 2645]: 25 to 50%.
The same measure, in the same setting: next, `O=C(COc1ccccc1)Nc1nnc(-c2ccccn2)[nH]1` [drawing 2545]: 51 to 75%; `O=C(CC1CCCC1)NCC(=O)Nc1nnc(-c2ccccn2)[nH]1` [drawing 2500]: 51 to 75%; `CC(C)(C)c1noc(CCC(=O)Nc2nnc(-c3ccccn3)[nH]2)n1` [drawing 2493]: 51 to 75%.
The same measure, in the same setting: as for `CN(CC(=O)N1CCCc2c(O)nc(-c3ccccn3)nc21)S(=O)(=O)c1ccccc1` [drawing 2641], the figure is 1 to 25%.
Take `CC(C)C1=C(O)C2(CC2c2ccc(-c3ccccc3)cc2)C(C)CC1` (stereo not shown) [drawing 2635]: the inhibition at 20 µM fell in the range of 25 to 50%.
The same measure, in the same setting: as for `CCN(CC)C(=O)c1sc2[nH]c(-c3ccccn3)nc(=O)c2c1C` [drawing 2589], the figure is 51 to 75%; as for `Cc1c(C(=O)Nc2nnc(-c3ccccn3)[nH]2)oc2c1C(=O)CCC2` [drawing 2477], 51 to 75%; as for `CC(C1CC1)N(CC(F)(F)F)C(=O)Cc1ccc(-c2ccccc2)cc1` (stereo not shown) [drawing 2630], 51 to 75%.
